What follows are compounds tested against T1, DNA repair protein RAD51 homolog 1 (Homo sapiens, UniProt Q06609) (assay: concentration-dependent blocking of RAD51 activity – biochemical, homologous recombination, fluorescence, dose response (AID 1435)). Details: not given.
T1 sequence (Q06609 whole entry): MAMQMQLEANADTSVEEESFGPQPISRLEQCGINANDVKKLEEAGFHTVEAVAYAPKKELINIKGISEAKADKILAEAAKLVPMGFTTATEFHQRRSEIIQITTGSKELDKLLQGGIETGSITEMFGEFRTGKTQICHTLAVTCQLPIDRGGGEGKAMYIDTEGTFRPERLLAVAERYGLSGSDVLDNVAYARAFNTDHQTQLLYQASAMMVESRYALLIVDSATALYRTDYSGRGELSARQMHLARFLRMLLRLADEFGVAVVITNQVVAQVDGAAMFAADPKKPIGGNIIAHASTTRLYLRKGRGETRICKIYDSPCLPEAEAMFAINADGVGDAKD
For CCOc1ccccc1C(=O)Nc1nccs1, the IC50 was > 85 µM.
Work on Cn1cc(NC(=O)c2cc(NC(=O)c3cc(NC=O)cn3C)cn2C)cc1C(=O)NCCC(=N)N yielded an IC50 of 6.37 µM.
Cc1ccccc1NC(=O)NCC1CCCO1 (centres undefined) [1-(2-methylphenyl)-3-(oxolan-2-ylmethyl)urea] was tested, and the IC50 was > 85 µM.
In the case of COc1ccc(S(=O)(=O)NC(C)C(=O)Nc2ccccc2C(F)(F)F)cc1 (centres undefined), the IC50 is reported as > 85 µM.
With CC1=CC(C)C(COC(N)=O)(COC(N)=O)C(C)C1 (centres undefined) the IC50 was > 85 µM.
Cc1cc2nc3c(nc2cc1C)C1(C(=O)O)CCC3(C)C1(C)C (centres undefined) [6,7,12,15,15-pentamethyl-3,10-diazatetracyclo[10.2.1.0~2,11~.0~4,9~]pentadeca-2(11),3,5,7,9-pentaene-1-carboxylic acid] was tested, and the IC50 was 37.1 µM.
O=C(CSc1nnc(Cc2ccccc2)o1)N1CCc2ccccc21 [1-{[(5-benzyl-1,3,4-oxadiazol-2-yl)thio]acetyl}indoline] was tested, and the IC50 was > 85 µM.
In the case of CCC(=O)Nc1nc(=S)ss1, the IC50 is reported as > 85 µM.
CCCCCOCC1CC(CC(C)N=Nc2nc(-c3ccccc3)cs2)C(=O)O1 (centres undefined) [5-(amoxymethyl)-3-[2-[(4-phenylthiazol-2-yl)hydrazono]propyl]tetrahydrofuran-2-one] was tested, and the IC50 was > 85 µM.
In the case of O=C(CSCc1ccc(F)cc1)Nc1nc2c(s1)CCCC2 [2-[(4-fluorobenzyl)thio]-N-(4,5,6,7-tetrahydro-1,3-benzothiazol-2-yl)acetamide], the IC50 is reported as > 85 µM.
With Cc1ccc(C(=O)COc2cccc(NC(=O)c3ccco3)c2)cc1 [N-{3-[2-(4-methylphenyl)-2-oxoethoxy]phenyl}-2-furamide] the IC50 was > 85 µM.
For Cc1[nH]nc2c1C(=O)CCC2, the IC50 was > 85 µM.
For C=CCNc1oc(-c2ccc(OC)cc2)nc1C#N [2-(4-methoxyphenyl)-5-(prop-2-enylamino)-1,3-oxazole-4-carbonitrile], the IC50 was > 85 µM.
With COc1cc(C(=O)O)c2c(c1C)OC(=O)c1c(C)cc(O)c(C=O)c1O2 [NSC-92186] the IC50 was 5.45 µM.
In the case of CCC(CC)c1nnc(NS(=O)(=O)Cc2ccccc2)s1 [SMR000074911], the IC50 is reported as > 85 µM.
For O=S(=O)(Nc1ccc(O)c(CN2CCCCC2)c1)c1ccccc1 [N-[4-oxidanyl-3-(piperidin-1-ylmethyl)phenyl]benzenesulfonamide], the IC50 was > 85 µM.
With O=C(c1ccc2ccccc2n1)N1CCN(c2ccccc2O)CC1 [Glucosamine derivative, 2] the IC50 was > 85 µM.
For COc1cccc2c1C(=O)c1c(O)c3c(c(O)c1C2=O)C[C@@](O)(C(=O)CO)C[C@@H]3O[C@H]1C[C@H](N)[C@H](O)[C@H](C)O1 [MLS000028393], the IC50 was > 85 µM.
CCN(CC)S(=O)(=O)c1ccc2c(c1)nc(SC(C)C(N)=O)n2-c1ccc(OC)cc1 (centres undefined) [2-[5-(diethylsulfamoyl)-1-(4-methoxyphenyl)benzimidazol-2-yl]sulfanylpropanamide] gave an IC50 of 34.8 µM.
With Cc1cc(O)c(C=O)c2c1C(=O)Oc1c(CO)c(O)c3c(c1O2)C(O)OC3=O (centres undefined) [1,4,10-Trihydroxy-5-hydroxymethyl-8-methyl-3,7-dioxo-1,3-dihydro-7H-benzo[e]furo[3'''',4'''':3,4]benzo[b][1,4]dioxepine-11-carbaldehyde] the IC50 was 8.02 µM.
CCC1(C)Nc2ccccc2C(=O)N1O (centres undefined) [SMR000024795] was tested, and the IC50 was > 85 µM.
For CCCCNC(=S)NNC(=O)C12CC3CC(CC(C3)C1)C2, the IC50 was > 85 µM.
In the case of COC(=O)COc1ccc(S(=O)(=O)NCCC2=CCCCC2)cc1C [methyl [4-({[2-(1-cyclohexen-1-yl)ethyl]amino}sulfonyl)-2-methylphenoxy]acetate], the IC50 is reported as > 85 µM.
In the case of CCOC(=O)C1CCCN(S(=O)(=O)c2ccc(OC)cc2)C1 (centres undefined) [1-(4-methoxyphenyl)sulfonyl-3-piperidinecarboxylic acid ethyl ester], the IC50 is reported as > 85 µM.
In the case of COCCn1c(=NC(=O)CSC(C)=O)sc2cc(F)ccc21 [S-[2-[[6-fluoranyl-3-(2-methoxyethyl)-1,3-benzothiazol-2-ylidene]amino]-2-oxidanylidene-ethyl] ethanethioate], the IC50 is reported as > 85 µM.
With CC(C)CC(=O)/N=C(\N)Nc1nc2ccccc2s1 [N-[(E)-N''''-(1,3-benzothiazol-2-yl)carbamimidoyl]-3-methylbutanamide] the IC50 was > 85 µM.
With Cc1cc(C(=O)Nc2cccnc2)cs1 [5-methyl-N-pyridin-3-yl-thiophene-3-carboxamide] the IC50 was > 85 µM.
For CCOC(=O)c1c(NS(C)(=O)=O)sc2c1CCC(C)C2 (centres undefined) [ethyl 2-(methanesulfonamido)-6-methyl-4,5,6,7-tetrahydro-1-benzothiophene-3-carboxylate], the IC50 was > 85 µM.
In the case of CCOC(=O)C1CCN(CC(=O)Nc2c(C(=O)OC)n(C)c3cccc(C)c23)CC1 [SMR000046840], the IC50 is reported as > 85 µM.
With CN1CCN(C(=O)c2ccc(S(=O)(=O)c3ccc(Br)cc3)cc2)CC1 [SMR000041005] the IC50 was > 85 µM.
CCOC(=O)C(NC(C)=O)(Nc1ccc(S(=O)(=O)Nc2cc(C)on2)cc1)C(F)(F)F (centres undefined) was tested, and the IC50 was > 85 µM.
In the case of Cc1onc(-c2c(Cl)cccc2Cl)c1C(=O)Nn1cnnc1 [SMR000009301], the IC50 is reported as > 85 µM.
In the case of CCCOc1ccccc1N=C(NC(=O)COc1ccc(OC)cc1)Nc1nc(C)cc(C)n1 [N-{[(4,6-dimethyl-2-pyrimidinyl)amino][(2-propoxyphenyl)amino]methylene}-2-(4-methoxyphenoxy)acetamide], the IC50 is reported as > 85 µM.
O=C1OCC2OC(O)C(O)C(O)C2OC(=O)c2cc(O)c(O)c(O)c2-c2c(O)c(O)c3oc(=O)c4c(c(O)c(O)c5oc(=O)c2c3c54)-c2c1cc(O)c(O)c2O (centres undefined) [SMR000445568] showed an IC50 of 0.176 µM.
In the case of O=C(CSc1ncn(-c2ccccc2)n1)c1cccs1, the IC50 is reported as > 85 µM.
O=C(Nc1ccc(-c2nc3ccccc3o2)cc1)c1ccc2c(c1)OCO2 [N-[4-(1,3-benzoxazol-2-yl)phenyl]-1,3-benzodioxole-5-carboxamide] was tested, and the IC50 was > 85 µM.
In the case of Cc1cc(C)n(-c2nc3c(c(=O)[nH]c(=O)n3C)n2Cc2ccc(F)cc2)n1 [SMR000046638], the IC50 is reported as > 85 µM.
With CC1CCCC(C)N1S(=O)(=O)c1ccc(NC(=O)CCn2cnc3ccccc3c2=O)cc1 (centres undefined) [N-[4-(2,6-dimethylpiperidin-1-yl)sulfonylphenyl]-3-(4-oxoquinazolin-3-yl)propanamide] the IC50 was > 85 µM.
In the case of O=c1cc(-c2ccccc2Cl)oc2ccc([N+](=O)[O-])c(O)c12 [2-(2-chlorophenyl)-5-hydroxy-6-nitrochromen-4-one], the IC50 is reported as > 85 µM.

Same assay, conditions: inactive by the depositor's call
With CC(=O)Nn1c(-c2ccccc2)cc2ccccc21 [MLS000082684] the IC50 was 42.5 µM.
CCOC(=O)CN1C(=O)N[C@@H](CCc2ccccc2)[C@@H](C(=O)OC)[C@H]1C [CMLD004122] was tested, and the IC50 was 42.5 µM.
For COC(=O)c1nc(N)sc1-c1ccccc1 [methyl 2-azanyl-5-phenyl-1,3-thiazole-4-carboxylate], the IC50 was 42.5 µM.
Work on CCOC(=O)N1CCN(C(=O)CSCC(=O)N=c2sc3ccccc3n2C)CC1 yielded an IC50 of 42.5 µM.
O=C(NC1CCCCC1)c1cc([N+](=O)[O-])ccc1N1CCCCC1 [Glucosamine derivative, 8] showed an IC50 of 42.5 µM.
Work on O=C(CN1C(=O)c2ccccc2S1(=O)=O)Nc1ccc(S(=O)(=O)N2CCCCC2)cc1 [SMR000074755] yielded an IC50 of 42.5 µM.
O=C(CN1C(=O)C2CC=CCC2C1=O)Nc1nccs1 (centres undefined) [MLS000054855] gave an IC50 of 42.5 µM.
COC(=O)CCC(=O)OC1(C)C(=O)C2=CN(C3CC3)C(c3ccc(OC)cc3)=CC2=C(Br)C1=O (centres undefined) [MLS000438679] gave an IC50 of 42.5 µM.
CCOc1ccc(OCC)c(NC(=O)C2CCN(c3ncccn3)CC2)c1 was tested, and the IC50 was 42.5 µM.
CCCCC(Nc1ncnc2ccccc12)C(=O)O (centres undefined) [2-(4-quinazolinylamino)hexanoic acid] was tested, and the IC50 was 42.5 µM.

Reference: BindingDB's records for doi:10.7270/Q2BV7F1T (Pcmd, 2008)
